Organism: Rattus norvegicus
Assay: DrugMatrix - Regimen: Daily Repeat
Type: toxicity, organism-based, Sprague-Dawley
Parameters: regimen Daily Repeat, gender Male, age 6-8 weeks
Conditions: in vivo, po, route oral GAVAGE, vehicle 100 % WATER; for ABSOLUTE BASOPHIL / ABSOLUTE EOSINOPHIL / ABSOLUTE LYMPHOCYTE / ABSOLUTE MONOCYTE / ABSOLUTE SEGMENTED NEUTROPHIL / BASOPHIL / EOSINOPHIL / ERYTHROCYTE COUNT / HEMATOCRIT / HEMOGLOBIN / LEUKOCYTE COUNT / LYMPHOCYTE / MEAN CORPUSCULAR HEMOGLOBIN / MEAN CORPUSCULAR HEMOGLOBIN CONCENTRATION / MEAN CORPUSCULAR VOLUME / MONOCYTE / NEUTROPHIL / NUCLEATED RED BLOOD CELLS / PLATELET COUNT: tissue Blood; for ALANINE AMINOTRANSFERASE / ALBUMIN / ALKALINE PHOSPHATASE / ASPARTATE AMINOTRANSFERASE / BLOOD UREA NITROGEN / CARBON DIOXIDE / CHLORIDE / CHOLESTEROL / CREATINE PHOSPHOKINASE / CREATININE / GLUCOSE / LACTATE DEHYDROGENASE / LIPASE / PHOSPHORUS / POTASSIUM / SODIUM / TOTAL BILIRUBIN / TOTAL PROTEIN / URIC ACID: tissue Plasma
[1] = 30 mg/kg, 120 h, dose level Low, time 5 day
[2] = 2000 mg/kg, 72 h, dose level High, time 3 day
[3] = 2000 mg/kg, 120 h, dose level High, time 5 day

With `CC(C)NCC(O)c1ccc(NS(C)(=O)=O)cc1` (centres undefined) [SOTALOL] the “ABSOLUTE BASOPHIL” value [1] was 0 CELLS/uL, the “ABSOLUTE EOSINOPHIL” value [1] was 80.67 CELLS/uL and the “ABSOLUTE LYMPHOCYTE” value [1] was 11724 CELLS/uL. The “ABSOLUTE MONOCYTE” value [1] was 98 CELLS/uL, the “ABSOLUTE SEGMENTED NEUTROPHIL” value [1] was 997.33 CELLS/uL and the BASOPHIL [1] was 0%. The EOSINOPHIL [1] was 0.67%, the “ERYTHROCYTE COUNT” value [1] was 5.34 x10E6/uL and the HEMATOCRIT [1] was 34.2%. For the same molecule, the HEMOGLOBIN [1] was 13.43 G/DL, the “LEUKOCYTE COUNT” value [1] was 12.9 x10E3/uL and the LYMPHOCYTE [1] was 90.67%. For the same molecule, the “MEAN CORPUSCULAR HEMOGLOBIN” value [1] was 25.17 pg, the “MEAN CORPUSCULAR HEMOGLOBIN CONCENTRATION” value [1] was 39.27 G/DL and the “MEAN CORPUSCULAR VOLUME” value [1] was 64 fL. For the same molecule, the MONOCYTE [1] was 0.67%, the NEUTROPHIL [1] was 8% and the “NUCLEATED RED BLOOD CELLS” value [1] was 0 /100WBC. For the same molecule, the “PLATELET COUNT” value [1] was 1232.33 x10E3/uL, the “ALANINE AMINOTRANSFERASE” value [1] was 48 u/L and the ALBUMIN [1] was 4.27 G/DL. For the same molecule, the “ALKALINE PHOSPHATASE” value [1] was 355 u/L, the “ASPARTATE AMINOTRANSFERASE” value [1] was 104.33 u/L and the “BLOOD UREA NITROGEN” value [1] was 17 mg/dL. For the same molecule, the “CARBON DIOXIDE” value [1] was 28.33 mmol/L, the CHLORIDE [1] was 105 MEQ/L and the CHOLESTEROL [1] was 70.67 mg/dL. The “CREATINE PHOSPHOKINASE” value [1] was 193.67 u/L, the CREATININE [1] was 0.2 mg/dL and the GLUCOSE [1] was 131.67 mg/dL. For the same molecule, the “LACTATE DEHYDROGENASE” value [1] was 156 u/L, the LIPASE [1] was 9.33 u/L and the PHOSPHORUS [1] was 11.6 mg/dL. For the same molecule, the POTASSIUM [1] was 6.59 MEQ/L, the SODIUM [1] was 150.53 MEQ/L and the “TOTAL BILIRUBIN” value [1] was 0.2 mg/dL. The “TOTAL PROTEIN” value [1] was 6.13 G/DL, the “URIC ACID” value [1] was 1.17 mg/dL and the “ABSOLUTE BASOPHIL” value [2] was 0 CELLS/uL. For the same molecule, the “ABSOLUTE EOSINOPHIL” value [2] was 0 CELLS/uL, the “ABSOLUTE LYMPHOCYTE” value [2] was 13259 CELLS/uL and the “ABSOLUTE MONOCYTE” value [2] was 47.67 CELLS/uL. For the same molecule, the “ABSOLUTE SEGMENTED NEUTROPHIL” value [2] was 926.67 CELLS/uL, the BASOPHIL [2] was 0% and the EOSINOPHIL [2] was 0%. The “ERYTHROCYTE COUNT” value [2] was 5.36 x10E6/uL, the HEMATOCRIT [2] was 33.57% and the HEMOGLOBIN [2] was 13.17 G/DL. The “LEUKOCYTE COUNT” value [2] was 14.23 x10E3/uL, the LYMPHOCYTE [2] was 93% and the “MEAN CORPUSCULAR HEMOGLOBIN” value [2] was 24.57 pg. For the same molecule, the “MEAN CORPUSCULAR HEMOGLOBIN CONCENTRATION” value [2] was 39.23 G/DL, the “MEAN CORPUSCULAR VOLUME” value [2] was 62.73 fL and the MONOCYTE [2] was 0.33%. The NEUTROPHIL [2] was 6.67%, the “NUCLEATED RED BLOOD CELLS” value [2] was 0 /100WBC and the “PLATELET COUNT” value [2] was 1424.33 x10E3/uL. For the same molecule, the “ALANINE AMINOTRANSFERASE” value [2] was 61 u/L, the ALBUMIN [2] was 3.9 G/DL and the “ALKALINE PHOSPHATASE” value [2] was 388.67 u/L. For the same molecule, the “ASPARTATE AMINOTRANSFERASE” value [2] was 106.33 u/L, the “BLOOD UREA NITROGEN” value [2] was 14 mg/dL and the “CARBON DIOXIDE” value [2] was 21.33 mmol/L. The CHLORIDE [2] was 104 MEQ/L, the CHOLESTEROL [2] was 57.67 mg/dL and the “CREATINE PHOSPHOKINASE” value [2] was 412.33 u/L. The CREATININE [2] was 0.15 mg/dL, the GLUCOSE [2] was 148 mg/dL and the “LACTATE DEHYDROGENASE” value [2] was 629 u/L. It also gave an LIPASE [2] of 10 u/L, a PHOSPHORUS [2] of 11.93 mg/dL and a POTASSIUM [2] of 7.54 MEQ/L. The SODIUM [2] was 142.93 MEQ/L, the “TOTAL BILIRUBIN” value [2] was 0.2 mg/dL and the “TOTAL PROTEIN” value [2] was 5.5 G/DL. The “URIC ACID” value [2] was 1.8 mg/dL, the “ABSOLUTE BASOPHIL” value [3] was 0 CELLS/uL and the “ABSOLUTE EOSINOPHIL” value [3] was 0 CELLS/uL. For the same molecule, the “ABSOLUTE LYMPHOCYTE” value [3] was 13770.67 CELLS/uL, the “ABSOLUTE MONOCYTE” value [3] was 100.67 CELLS/uL and the “ABSOLUTE SEGMENTED NEUTROPHIL” value [3] was 1095.33 CELLS/uL. For the same molecule, the BASOPHIL [3] was 0%, the EOSINOPHIL [3] was 0% and the “ERYTHROCYTE COUNT” value [3] was 5.87 x10E6/uL. The HEMATOCRIT [3] was 36.53%, the HEMOGLOBIN [3] was 14.37 G/DL and the “LEUKOCYTE COUNT” value [3] was 14.97 x10E3/uL. For the same molecule, the LYMPHOCYTE [3] was 92%, the “MEAN CORPUSCULAR HEMOGLOBIN” value [3] was 24.47 pg and the “MEAN CORPUSCULAR HEMOGLOBIN CONCENTRATION” value [3] was 39.33 G/DL. For the same molecule, the “MEAN CORPUSCULAR VOLUME” value [3] was 62.27 fL, the MONOCYTE [3] was 0.67% and the NEUTROPHIL [3] was 7.33%. The “NUCLEATED RED BLOOD CELLS” value [3] was 0.33 /100WBC, the “PLATELET COUNT” value [3] was 1192.33 x10E3/uL and the “ALANINE AMINOTRANSFERASE” value [3] was 54.33 u/L. For the same molecule, the ALBUMIN [3] was 4.33 G/DL, the “ALKALINE PHOSPHATASE” value [3] was 480.33 u/L and the “ASPARTATE AMINOTRANSFERASE” value [3] was 83 u/L. The “BLOOD UREA NITROGEN” value [3] was 16.33 mg/dL, the “CARBON DIOXIDE” value [3] was 24.33 mmol/L and the CHLORIDE [3] was 106 MEQ/L. The CHOLESTEROL [3] was 77 mg/dL, the “CREATINE PHOSPHOKINASE” value [3] was 259.33 u/L and the CREATININE [3] was 0.22 mg/dL. For the same molecule, the GLUCOSE [3] was 159.33 mg/dL, the “LACTATE DEHYDROGENASE” value [3] was 78.67 u/L and the LIPASE [3] was 10.33 u/L. For the same molecule, the PHOSPHORUS [3] was 13.13 mg/dL, the POTASSIUM [3] was 6.86 MEQ/L and the SODIUM [3] was 148.2 MEQ/L. For the same molecule, the “TOTAL BILIRUBIN” value [3] was 0.2 mg/dL, the “TOTAL PROTEIN” value [3] was 6.13 G/DL and the “URIC ACID” value [3] was 1.73 mg/dL.
